The numbers were not newly measured in patent US20090005297A1 (priority 2004, published 2009), which cites them from elsewhere.

The conditions of the data set: nonspecific PEGylation at amine groups with one or two 5 kDa PEG.

Regarding “variant aprotinin (T11 D, K15R, R17L, I18H, I19L, V34Y, R39L, K46E): variant aprotinin nonspecifically PEGylated at amine groups with one or two 5 kDa PEG (Stassen 1995)”, the in vivo effectiveness entry was “not improved”.
